Six compounds from US10738074B2, “Cyclic di-nucleotide compounds as STING agonists” (Merck Sharp & Dohme Corp., priority 2015, dated 2020) can be followed below.

Test [1] deals with THP1 cells. In words: IFN-β secretion in THP1 cell culture (5 h). It counts as cell-based, human. As to conditions: IFN-β secretion, THP1 cells, 5 h, 30 μM; for activation at 30 µM: Homo sapiens, THP-1, 5 h, read-out: % Effect at 30 μM relative to 2′3′-cGAMP. As to the method: The ability of compounds to stimulate the secretion of interferon-beta from THP1 cells was measured using a human IFN-β AlphaLISA kit (Perkin Elmer, Cat. No. AL265F). The basic protocol is as follows:
A Labcyte Echo 550 acoustic dispenser was used to transfer 120 nL of compound dissolved in DMSO into the wells of an empty, sterile 384-well microplate, (Corning, Cat. No. 3712). THP1 cells (American Type Culture Collection, Cat. No. TIB202) previously frozen in Recovery Medium (Life Technologies, Cat. No. 12648-010) were thawed and immediately diluted 10-fold into 37° C. assay medium (RPMI 1640+L-Glutamine & phenol red, Life Technologies, Cat. No. 11875-085; 0.5% heat inactivated fetal bovine serum, Sigma Aldrich, Cat. No. F4135; 1 mM Sodium Pyruvate, Life Technologies, Cat. No. 11360-070; lx non-essential amino acids; Life Technologies, Cat. No. 11140-050). The cell viability and count was ascertained using a Beckman Coulter V-Cell XR cell counter. The cells suspension was centrifuged at 200×g for 5 min at RT. Cells were resuspended to a density of 0.8×10^6/mL in 37° C. assay medium. Subsequent liquid transfers were performed using either a Matrix electronic multichannel pipette or an Agilent Bravo Automated Liquid Handling Platform.
The assay was started by dispensing 40 μL of the previously prepared cell suspension into the wells of the plate containing compounds. After 5 h incubation at 37° C., 5% CO2 in a humidified atmosphere, the plate of cells and compounds was centrifuged at 200×g for 5 min at RT. From each well, 5 μL of supernatant was transferred into corresponding wells of a white 384-well plate (Perkin Elmer, Cat. No. 6005620). To these supernatant-containing wells was added 10 μL of 5× Anti-Analyte Acceptor beads (50 μg/mL of AlphaLISA HiBlock Buffer) and incubated for 30 min at RT while shaking on an orbital plate shaker. To each well was added 10 μL of 5× Biotinylated Antibody Anti-analyte (5 nM in AlphaLISA HiBlock Buffer) and incubated on an orbital plate shaker for 60 min at RT or overnight at 4° C. To each well was added 25 μL of 2× SA-Donor beads (80 μg/mL in AlphaLISA HiBlock Buffer) and incubated for 30-45 min at RT in the dark while shaking on an orbital plate shaker. The plate was then read on a Perkin Elmer Envision (λex=680 nm, λem=[…]). The percent effect of the AlphaLISA signal at each compound concentration was calculated based on 30 uM cGAMP positive controls and 0.3% DMSO negative controls. The plot of percent effect versus the log of compound concentration was fit with a 4-parameter concentration response equation to calculate EC50 values. The test compounds were tested at concentrations 30000, 10000, 3333, 1111, 370.4, 123.4, 41.2, 13.7, 4.6, and 1.5 nM with 0.3% residual DMSO.
Compounds of the disclosure were evaluated for IFN-β secretion in THP1 cell culture as described above. The following table tabulates the biological data for these compounds as percent activation relative to 2′3′-cGAMP at the 30 μM concentration.

Test [2] addresses full-length WT STING (Homo sapiens (Human), UniProt Q86WV6, H232R). In words: 3H-cGAMP filtration binding assay (WT STING). As to conditions: competition with tritiated cGAMP, WT STING membrane. An excerpt:
The ability of compounds to bind STING is quantified by their ability to compete with tritiated cGAMP ligand for human STING receptor membrane using a radioactive filter-binding assay. The binding assay employs STING receptor obtained from Trichoplusia ni cell membranes (Tni; Expression Systems, cat #94-002F, www.expressionsystems.com) overexpressing full-length WT STING prepared in-house and tritiated cGAMP ligand also purified in-house.
The basic WT STING filtration assay protocol is as follows:
The filter plates were then dried at 55° C. for 30 min using a pressurized VWR oven before 30 uL of Ultima GoldF scintillate was added to each well. Tritium levels for each reaction well were then measured using a PerkinElmer TopCount plate reader.
(§1) After normalization to controls, the percent activity for each compound concentration was calculated by measuring the amount of remaining radioactivity. The plot of percent activity versus the log of compound concentration was fit with a 4-parameter dose response equation to calculate EC50 values.

Test [3] has as its target full-length HAQ STING (Homo sapiens (Human), UniProt Q86WV6, G230A/H232R/R293Q/R71H). Description: 3H-cGAMP filtration binding assay (HAQ STING). As to conditions: competition with tritiated cGAMP, HAQ STING membrane.
Description: The ability of compounds to bind STING is quantified by the ability to compete with tritiated cGAMP ligand for human STING receptor membrane using a radioactive filter-binding assay. The binding assay employs STING receptor obtained from Hi-Five cell membranes overexpressing full-length HAQ STING prepared in-house and tritiated cGAMP ligand also purified in-house.
The ability of compounds to bind STING is quantified by their ability to compete with tritiated cGAMP ligand for human STING receptor membrane using a radioactive filter-binding assay. The binding assay employs STING receptor obtained from Trichoplusia ni cell membranes (Tni; Expression Systems, cat #94-002F, www.exrpressionsystems.com) overexpressing full-length HAQ STING prepared in-house and tritiated cGAMP ligand also purified in-house.
The basic HAQ STING filtration assay protocol is as follows:
Compound and membrane then preincubated for 60 min at RT to allow compound binding to equilibrate. Following equilibration, 8 nM of [^3H] c-GAMP ligand was prepared by diluting into assay buffer, and 50 uL of this working stock was then manually added to each well of the assay plate. […] The filter plates were then dried at 55° C. for 30 min using a pressurized VWR oven before 30 uL of Ultima GoldF scintillate was added to each well. Tritium levels for each reaction well were then measured using a PerkinElmer TopCount plate reader.
as §1

Molecules are shown by their SMILES.

full-length WT STING, sequence (Q86WV6 other isoform, or with tags, fused parts or gaps H232R (already in the parent)): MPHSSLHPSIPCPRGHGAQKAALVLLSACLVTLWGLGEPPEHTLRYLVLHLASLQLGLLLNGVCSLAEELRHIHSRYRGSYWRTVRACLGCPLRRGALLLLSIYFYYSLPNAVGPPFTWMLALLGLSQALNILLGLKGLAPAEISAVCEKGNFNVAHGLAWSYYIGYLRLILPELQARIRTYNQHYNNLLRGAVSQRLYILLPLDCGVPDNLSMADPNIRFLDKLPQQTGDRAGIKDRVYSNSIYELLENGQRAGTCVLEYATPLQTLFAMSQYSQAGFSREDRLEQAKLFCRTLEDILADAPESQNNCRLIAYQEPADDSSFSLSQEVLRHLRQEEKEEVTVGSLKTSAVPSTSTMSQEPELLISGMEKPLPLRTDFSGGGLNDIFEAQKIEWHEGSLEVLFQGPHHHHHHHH
full-length HAQ STING, sequence (Q86WV6 other isoform, or with tags, fused parts or gaps, stated change not applied): as the sequence (Q86WV6 other isoform, or with tags, fused parts or gaps H232R (already in the parent)) above, with R71H, G230A, R293Q counted along it

Turning to `Nc1nc2c(ncn2[C@@H]2O[C@@H]3COP(O)(=S)O[C@@H]4[C@H](F)[C@@H](COP(O)(=S)O[C@@H]2[C@@H]3F)O[C@H]4n2cnc3c(=O)[nH]c(N)nc32)c(=O)[nH]1` (single isomer, unassigned) [Example 22], the “% Effect at 30 μM relative to 2′3′-cGAMP” value in test [1] came out at 129%. Also, the EC50 (in general, the midpoint of the concentration-response curve) in test [2] is less than 1 nM.
For `Nc1nc2c(ncn2[C@@H]2O[C@@H]3COP(O)(=S)O[C@@H]4[C@H](F)[C@@H](COP(O)(=S)O[C@@H]2[C@@H]3F)O[C@H]4n2cnc3c(=O)[nH]c(N)nc32)c(=O)[nH]1` (single isomer, unassigned) [Example 23], in that order: 135% and 4 nM.
As for `Nc1nc2c(ncn2[C@@H]2O[C@@H]3COP(O)(=S)O[C@@H]4[C@H](F)[C@@H](COP(O)(=S)O[C@@H]2[C@@H]3F)O[C@H]4n2cnc3c(=O)[nH]c(N)nc32)c(=O)[nH]1` (single isomer, unassigned) [Example 24], the “% Effect at 30 μM relative to 2′3′-cGAMP” value in test [1] came out at 84%. Besides, the EC50 in test [2] amounted to 1.2 nM.
On to `Nc1nc2c(ncn2[C@@H]2O[C@@H]3COP(=O)(S)O[C@@H]4[C@@H](F)[C@@H](COP(=O)(S)O[C@@H]2[C@H]3F)O[C@H]4n2cnc3c(=O)[nH]c(N)nc32)c(=O)[nH]1` (stereo partly drawn) [Example 30, 9,9′-[(1S,6R,8R,9S,14R,16R,17S,18S)-17,18-difluoro-3,11-dioxido-3,11-disulfanyl-2,4,7,10,12,15-hexaoxa-3,11-diphosphatricyclo[12.2.1.1^6,9]octadecane-8,16-diyl]bis(2-amino-1,9-dihydro-6H-purin-6-one)], for which the activation at 30 µM in test [1] came out at 8%. In test [2], this compound gave an EC50 of 7350 nM.
The matching figures for `Nc1nc2c(nnn2[C@@H]2O[C@@H]3COP(=O)(S)O[C@@H]4[C@H](F)[C@@H](COP(=O)(S)O[C@@H]2[C@@H]3F)O[C@H]4n2nnc3c(=O)[nH]c(N)nc32)c(=O)[nH]1` (stereo partly drawn) [Example 31, 3,3′-[(1S,6R,8R,9S,14R,16R,17R,18R)-17,18-difluoro-3,11-dioxido-3,11-disulfanyl-2,4,7,10,12,15-hexaoxa-3,11-diphosphatricyclo[12.2.1.1^6,9]octadecane-8,16-diyl]bis(5-amino-3,6-dihydro-7H-[1,2,3]triazolo[4,5-d]pyrimidin-7-one)]: 57% and less than 1 nM.
For `Nc1nc2c(ncn2[C@H]2O[C@@H]3COP(=O)(O)O[C@@H]4[C@H](N)[C@@H](COP(=O)(O)O[C@@H]2[C@@H]3O)O[C@H]4n2cnc3c(N)ncnc32)c(=O)[nH]1` [Example 34], the EC50 in test [3] and in test [2] was less than 1 nM throughout. Further, the “% Effect at 30 μM relative to 2′3′-cGAMP” value in test [1] is on record as 132%.
